Test results: PMC9151729, “Experimental solubility and thermodynamic modeling of empagliflozin in supercritical carbon dioxide” (Scientific Reports, 2022)
In brackets after ≈: the same amount, converted by molar mass. Read-outs that look alike come from different tables or passages of the source. Marks after values point to notes of the source that are not given here.

Assays:
[1] = Solubility of empagliflozin in supercritical carbon dioxide (isobaric-isothermal method, UV-Vis at 276 nm); format: physicochemical; conditions: for solubility thermodynamic at 60 min: supercritical carbon dioxide (ScCO2), thermodynamic from solid, read-out: S (equilibrium solubility) in ScCO2
Experimental: The detailed discussion of the solubility apparatus and equilibrium cell has been presented in our earlier studies (Fig. 2)[19],[25],[40],[41]. However, a brief description about the apparatus is presented in this section. This method may be classified as an isobaric-isothermal method. Each measurement was carried out with high precision and temperatures and pressures were controlled within ± 0.1 K and ± 0.1 MPa, respectively. For all measurement, 1 g of empagliflozin drug was used. As mentioned in our previous works, the equilibrium was observed within 60 min. After equilibrium, 600 µL saturated ScCO2 sample was collected via 2-status 6-way port valve in a DMSO preloaded vial. After discharging 600 µL saturated ScCO2, the port valve was washed with 1 ml DMSO. Thus, the total saturation solution was 5 ml. Each measurement was repeated thrice and their average values were reported. Mole fraction is obtained as follows:1 y2=ndrug/ndrug+nCO2 where nsolute is the moles number of the drug, and nCO2 is the moles number of CO2 in the sampling loop.
Further, the above quantities are given as:2 nsolute=Cs·Vs/Ms 3 nCO2=V1·ρ/MCO2 where Cs is the drug concentration in saturated sample vial in g/L. The volume of the sampling loop and vial collection are V1(L) = 600 × 10^–6 m^3 and Vs(L) = 5 × 10^–3 m^3, respectively. The Ms and MCO2 are the molecular weight of drug and CO2, respectively. Solubility is also described as4 S=CSVs/V1
The relation between S and y2 is5 S=ρMs/MCO2y2/1-y2
A UV–Visible spectrophotometer (Model UNICO-4802) and DMSO solvent were used for the measurement of empagliflozin solubility. The samples were analyzed at 276 nm.

[2] = Total, sublimation and solvation enthalpies from Chrastil, Reformulated Chrastil and Bartle et al. model correlations of the solubility data; format: physicochemical
From the text: It is an empirical model and mathematically stated as:7 lny2P/Pref=A2+B2/T+C2ρ-ρref where A2-C2 are model constants. From parameter B2 , one can estimate sublimation enthalpy using the relation, ΔsubH=-B2R , in which R is universal gas constant.
It is a semi-empirical model and mathematically stated as:9 c2=ρ1κexpA4+B4/T where κ,A4andB4 are model constants.
It is a semi-empirical model and mathematically explained as:15 y2=RTρ1/MCFf^·^κ^′-1expA11+B11/T where κ^′,A10andB10 are model constants.
The density-based models considered in this work have different number of adjustable parameters. These parameters range from three to six numbers. The correlating ability of the models is depicted in Figs. 5, 6, 7, 8, 9, 10, 11. From the results, it is clear that all the models are able to correlate the data reasonably well and maximum AARD% is observed to be 10.4%. It is believed that, more parameter models are able to correlate the data more accurately. Sodefian et al., model is able to correlate the data with AARD = 5.84% and Akaike’s information criterion (AIC = − 637.59) (more relevant information is presented in the following section). Among density models, Bian et al., model (five parameters model) is able to correlate the data well and corresponding AARD% is 5.1%. […] Further, Chrastil and Reformulated Chrastil models are able to provide the total enthalpy. Whereas, Bartle et al., model parameters are able to provide sublimation enthalpy of the empagliflozin drug. From the magnitude difference between the total and sublimation enthalpies, a solvation enthalpy is calculated.

[3] = 308 K, 12 MPa, ScCO2 density 769 kg/m^3
[4] = 308 K, 15 MPa, ScCO2 density 817 kg/m^3
[5] = 308 K, 18 MPa, ScCO2 density 849 kg/m^3
[6] = 308 K, 21 MPa, ScCO2 density 875 kg/m^3
[7] = 308 K, 24 MPa, ScCO2 density 896 kg/m^3
[8] = 308 K, 27 MPa, ScCO2 density 914 kg/m^3
[9] = 318 K, 12 MPa, ScCO2 density 661 kg/m^3
[10] = 318 K, 15 MPa, ScCO2 density 744 kg/m^3
[11] = 318 K, 18 MPa, ScCO2 density 791 kg/m^3
[12] = 318 K, 21 MPa, ScCO2 density 824 kg/m^3
[13] = 318 K, 24 MPa, ScCO2 density 851 kg/m^3
[14] = 318 K, 27 MPa, ScCO2 density 872 kg/m^3
[15] = 328 K, 12 MPa, ScCO2 density 509 kg/m^3
[16] = 328 K, 15 MPa, ScCO2 density 656 kg/m^3
[17] = 328 K, 18 MPa, ScCO2 density 725 kg/m^3
[18] = 328 K, 21 MPa, ScCO2 density 769 kg/m^3
[19] = 328 K, 24 MPa, ScCO2 density 802 kg/m^3
[20] = 328 K, 27 MPa, ScCO2 density 829 kg/m^3
[21] = 338 K, 12 MPa, ScCO2 density 388 kg/m^3
[22] = 338 K, 15 MPa, ScCO2 density 557 kg/m^3
[23] = 338 K, 18 MPa, ScCO2 density 652 kg/m^3
[24] = 338 K, 21 MPa, ScCO2 density 710 kg/m^3
[25] = 338 K, 24 MPa, ScCO2 density 751 kg/m^3
[26] = 338 K, 27 MPa, ScCO2 density 783 kg/m^3

y2 solubility in ScCO2 (mole fraction) [1, 3]: 0.0814 y2 × 10^4 (mole fraction)
y2 solubility in ScCO2 (mole fraction) [1, 4]: 0.1266 y2 × 10^4 (mole fraction)
y2 solubility in ScCO2 (mole fraction) [1, 5]: 0.1327 y2 × 10^4 (mole fraction)
y2 solubility in ScCO2 (mole fraction) [1, 6]: 0.1411 y2 × 10^4 (mole fraction)
y2 solubility in ScCO2 (mole fraction) [1, 7]: 0.1501 y2 × 10^4 (mole fraction)
y2 solubility in ScCO2 (mole fraction) [1, 8]: 0.1806 y2 × 10^4 (mole fraction)
y2 solubility in ScCO2 (mole fraction) [1, 9]: 0.0706 y2 × 10^4 (mole fraction)
y2 solubility in ScCO2 (mole fraction) [1, 10]: 0.1182 y2 × 10^4 (mole fraction)
y2 solubility in ScCO2 (mole fraction) [1, 11]: 0.1515 y2 × 10^4 (mole fraction)
y2 solubility in ScCO2 (mole fraction) [1, 12]: 0.1601 y2 × 10^4 (mole fraction)
y2 solubility in ScCO2 (mole fraction) [1, 13]: 0.2040 y2 × 10^4 (mole fraction)
y2 solubility in ScCO2 (mole fraction) [1, 14]: 0.2079 y2 × 10^4 (mole fraction)
y2 solubility in ScCO2 (mole fraction) [1, 15]: 0.0611 y2 × 10^4 (mole fraction)
y2 solubility in ScCO2 (mole fraction) [1, 16]: 0.1044 y2 × 10^4 (mole fraction)
y2 solubility in ScCO2 (mole fraction) [1, 17]: 0.1620 y2 × 10^4 (mole fraction)
y2 solubility in ScCO2 (mole fraction) [1, 18]: 0.1860 y2 × 10^4 (mole fraction)
y2 solubility in ScCO2 (mole fraction) [1, 19]: 0.2248 y2 × 10^4 (mole fraction)
y2 solubility in ScCO2 (mole fraction) [1, 20]: 0.2260 y2 × 10^4 (mole fraction)
y2 solubility in ScCO2 (mole fraction) [1, 21]: 0.0514 y2 × 10^4 (mole fraction)
y2 solubility in ScCO2 (mole fraction) [1, 22]: 0.0928 y2 × 10^4 (mole fraction)
y2 solubility in ScCO2 (mole fraction) [1, 23]: 0.2002 y2 × 10^4 (mole fraction)
y2 solubility in ScCO2 (mole fraction) [1, 24]: 0.2266 y2 × 10^4 (mole fraction)
y2 solubility in ScCO2 (mole fraction) [1, 25]: 0.2637 y2 × 10^4 (mole fraction)
y2 solubility in ScCO2 (mole fraction) [1, 26]: 0.2590 y2 × 10^4 (mole fraction)
cross over region of the solubility isotherms ([1]; ScCO2, isotherms 308 to 338 K): 16.5 MPa
solubility thermodynamic at 60 min [1, 3]: 64.3 µg/mL (≈ 143 µM)
solubility thermodynamic at 60 min [1, 4]: 106 µg/mL (≈ 235 µM)
solubility thermodynamic at 60 min [1, 5]: 116 µg/mL (≈ 256 µM)
solubility thermodynamic at 60 min [1, 6]: 126 µg/mL (≈ 281 µM)
solubility thermodynamic at 60 min [1, 7]: 138 µg/mL (≈ 306 µM)
solubility thermodynamic at 60 min [1, 8]: 169 µg/mL (≈ 375 µM)
solubility thermodynamic at 60 min [1, 9]: 47.9 µg/mL (≈ 106 µM)
solubility thermodynamic at 60 min [1, 10]: 90.1 µg/mL (≈ 200 µM)
solubility thermodynamic at 60 min [1, 11]: 123 µg/mL (≈ 272 µM)
solubility thermodynamic at 60 min [1, 12]: 135 µg/mL (≈ 300 µM)
solubility thermodynamic at 60 min [1, 13]: 181 µg/mL (≈ 402 µM)
solubility thermodynamic at 60 min [1, 14]: 186 µg/mL (≈ 412 µM)
solubility thermodynamic at 60 min [1, 15]: 31.9 µg/mL (≈ 70.7 µM)
solubility thermodynamic at 60 min [1, 16]: 70.2 µg/mL (≈ 156 µM)
solubility thermodynamic at 60 min [1, 17]: 120 µg/mL (≈ 267 µM)
solubility thermodynamic at 60 min [1, 18]: 147 µg/mL (≈ 325 µM)
solubility thermodynamic at 60 min [1, 19]: 185 µg/mL (≈ 410 µM)
solubility thermodynamic at 60 min [1, 20]: 192 µg/mL (≈ 426 µM)
solubility thermodynamic at 60 min [1, 21]: 20.4 µg/mL (≈ 45.2 µM)
solubility thermodynamic at 60 min [1, 22]: 53 µg/mL (≈ 118 µM)
solubility thermodynamic at 60 min [1, 23]: 134 µg/mL (≈ 297 µM)
solubility thermodynamic at 60 min [1, 24]: 165 µg/mL (≈ 366 µM)
solubility thermodynamic at 60 min [1, 25]: 203 µg/mL (≈ 450 µM)
solubility thermodynamic at 60 min [1, 26]: 208 µg/mL (≈ 461 µM)
Enthalpy of sublimation, ΔHsub ([2]; obtained with Bartle et al. model): ~49.653^c (approximate value) kJ/mol
Total entalpy, ΔHtotal ([2]; obtained with Chrastil model): 30.548^a kJ/mol
Total entalpy, ΔHtotal ([2]; obtained with Reformulated Chrastil model): 22.496^b kJ/mol
Compound: OC[C@H]1O[C@@H](c2ccc(Cl)c(Cc3ccc(O[C@H]4CCOC4)cc3)c2)[C@H](O)[C@@H](O)[C@@H]1O [empagliflozin]
